Results reported in ChEMBL document CHEMBL5465560, “Selectivity Literature for EUbOPEN Chemogenomic Library” (2024).

Key:
[1] = biological target: T1, Serine/threonine-protein kinase TAO3 (Homo sapiens) (UniProt Q9H2K8); assay: Selectivity interaction (KinomeScan (DiscoverX)) EUB0000666a TAOK3; settings: at 10 µM
T1 sequence (whole entry): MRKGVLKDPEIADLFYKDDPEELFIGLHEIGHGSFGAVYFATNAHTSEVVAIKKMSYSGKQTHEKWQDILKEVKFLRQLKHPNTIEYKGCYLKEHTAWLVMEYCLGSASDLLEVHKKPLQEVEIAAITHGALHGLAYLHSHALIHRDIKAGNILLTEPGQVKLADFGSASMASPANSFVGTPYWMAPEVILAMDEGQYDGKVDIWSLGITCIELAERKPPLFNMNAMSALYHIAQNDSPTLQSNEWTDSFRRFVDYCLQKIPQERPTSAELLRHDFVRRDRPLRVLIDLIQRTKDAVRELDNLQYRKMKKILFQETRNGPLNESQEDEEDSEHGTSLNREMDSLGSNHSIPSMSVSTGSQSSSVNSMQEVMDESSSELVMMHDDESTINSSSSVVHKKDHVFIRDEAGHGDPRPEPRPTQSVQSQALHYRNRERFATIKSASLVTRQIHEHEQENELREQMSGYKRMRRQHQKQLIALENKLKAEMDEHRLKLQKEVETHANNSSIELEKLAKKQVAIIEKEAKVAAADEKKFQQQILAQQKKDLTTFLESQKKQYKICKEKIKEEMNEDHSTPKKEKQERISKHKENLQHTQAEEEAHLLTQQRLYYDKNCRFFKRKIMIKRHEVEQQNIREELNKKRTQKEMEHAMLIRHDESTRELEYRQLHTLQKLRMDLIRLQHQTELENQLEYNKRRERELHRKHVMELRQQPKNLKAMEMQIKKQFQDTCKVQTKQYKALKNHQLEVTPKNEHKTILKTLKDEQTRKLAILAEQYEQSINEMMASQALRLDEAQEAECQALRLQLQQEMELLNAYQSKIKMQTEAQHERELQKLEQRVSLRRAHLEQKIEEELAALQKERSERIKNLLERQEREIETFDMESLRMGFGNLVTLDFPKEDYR

[2] = biological target: Tyrosine-protein kinase Fgr (Homo sapiens) (UniProt P09769); assay: Selectivity interaction (KinomeScan (DiscoverX)) EUB0000666a FGR; settings: at 10 µM
[3] = biological target: Mitogen-activated protein kinase 1 (Homo sapiens, UniProt P28482); assay: Selectivity interaction (SelectScreen profiling (Invitrogen)) EUB0000607a MAPK1; settings: at 2 µM
[4] = Selectivity interaction (ActivX KiNativ screen (kinase selectivity in THP-1 cell lysates)) EUB0000639a STLK6; settings: Selectivity number of off-targets 0; Selectivity number of targets 283; Source Knowledge https://pubmed.ncbi.nlm.nih.gov/28498658/; at 0.04 µM
[5] = biological target: T2, Ephrin type-A receptor 1 (Homo sapiens) (UniProt P21709); assay: Selectivity interaction (Ambit KINOMEscan and KiNATiv profiling in Jurkat cells) EUB0000090b EPHA1; assay type: cell-based; settings: at 1 µM
T2 sequence (whole entry): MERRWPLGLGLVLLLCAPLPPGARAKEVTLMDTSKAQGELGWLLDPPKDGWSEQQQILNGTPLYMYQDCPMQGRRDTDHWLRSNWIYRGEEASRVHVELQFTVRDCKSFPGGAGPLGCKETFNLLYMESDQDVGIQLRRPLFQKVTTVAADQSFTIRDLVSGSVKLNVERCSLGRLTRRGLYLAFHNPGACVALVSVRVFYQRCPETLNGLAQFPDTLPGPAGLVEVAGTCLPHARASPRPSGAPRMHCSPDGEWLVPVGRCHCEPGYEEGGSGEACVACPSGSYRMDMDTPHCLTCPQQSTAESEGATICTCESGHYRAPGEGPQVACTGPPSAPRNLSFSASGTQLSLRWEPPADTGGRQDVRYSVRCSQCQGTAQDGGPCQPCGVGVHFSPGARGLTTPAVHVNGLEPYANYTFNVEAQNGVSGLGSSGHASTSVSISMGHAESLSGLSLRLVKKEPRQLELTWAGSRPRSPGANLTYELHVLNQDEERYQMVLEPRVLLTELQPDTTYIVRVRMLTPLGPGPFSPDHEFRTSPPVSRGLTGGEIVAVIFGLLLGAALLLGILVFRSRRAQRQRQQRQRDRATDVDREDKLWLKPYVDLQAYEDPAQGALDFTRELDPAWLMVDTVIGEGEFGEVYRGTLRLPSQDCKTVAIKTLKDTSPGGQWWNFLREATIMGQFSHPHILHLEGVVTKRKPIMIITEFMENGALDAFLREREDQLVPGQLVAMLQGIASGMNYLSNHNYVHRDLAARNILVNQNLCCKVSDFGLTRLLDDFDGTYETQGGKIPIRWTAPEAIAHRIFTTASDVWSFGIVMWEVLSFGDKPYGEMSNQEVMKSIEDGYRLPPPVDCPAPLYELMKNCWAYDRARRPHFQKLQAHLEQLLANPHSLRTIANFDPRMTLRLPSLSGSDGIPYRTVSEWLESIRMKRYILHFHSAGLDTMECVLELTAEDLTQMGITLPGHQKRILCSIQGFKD

[6] = biological target: Serine/threonine-protein kinase PAK 1 (Homo sapiens) (UniProt Q13153); assay: Selectivity interaction (Kinase panel (DSF assay)) EUB0001558a PAK1
[7] = biological target: MAP kinase-interacting serine/threonine-protein kinase 1 (Homo sapiens) (UniProt Q9BUB5); assay: Selectivity interaction (KinomeScan (DiscoverX)) EUB0000655a MKNK1; settings: at 10 µM
[8] = Selectivity interaction (KinomeScan (DiscoverX)) EUB0001079a CDK2H; settings: at 1 µM
[9] = biological target: Ephrin type-A receptor 2 (Homo sapiens) (UniProt P29317); assay: Selectivity interaction (KinomeScan (DiscoverX)) EUB0000092b EPHA2; settings: at 10 µM
[10] = biological target: Ephrin type-A receptor 7 (Homo sapiens) (UniProt Q15375); settings: at 10 µM
[11] = biological target: Protein kinase C delta type (Homo sapiens) (UniProt Q05655); assay: Selectivity interaction (KinomeScan (DiscoverX)) EUB0001619a PRKCD; settings: at 1 µM
Chain of Protein kinase C delta type (Homo sapiens) (Q05655 whole entry, looked up): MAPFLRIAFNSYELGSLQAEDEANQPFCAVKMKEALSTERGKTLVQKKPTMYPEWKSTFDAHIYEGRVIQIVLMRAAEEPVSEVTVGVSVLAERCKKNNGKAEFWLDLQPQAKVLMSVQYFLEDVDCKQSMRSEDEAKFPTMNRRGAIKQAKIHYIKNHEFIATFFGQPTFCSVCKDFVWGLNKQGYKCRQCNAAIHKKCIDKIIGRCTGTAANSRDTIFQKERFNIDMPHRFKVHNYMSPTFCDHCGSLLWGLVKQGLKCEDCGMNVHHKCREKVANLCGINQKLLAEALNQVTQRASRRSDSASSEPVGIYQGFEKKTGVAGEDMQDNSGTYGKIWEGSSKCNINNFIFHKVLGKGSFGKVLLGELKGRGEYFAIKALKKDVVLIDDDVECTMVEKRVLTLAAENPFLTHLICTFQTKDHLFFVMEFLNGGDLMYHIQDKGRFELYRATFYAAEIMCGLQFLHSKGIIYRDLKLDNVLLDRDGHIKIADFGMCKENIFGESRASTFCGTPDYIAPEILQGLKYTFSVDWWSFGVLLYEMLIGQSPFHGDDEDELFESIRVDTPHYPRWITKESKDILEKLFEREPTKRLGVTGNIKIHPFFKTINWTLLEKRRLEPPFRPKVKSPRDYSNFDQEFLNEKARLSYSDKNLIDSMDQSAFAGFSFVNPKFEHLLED

Chain of Ephrin type-A receptor 7 (Homo sapiens) (Q15375 28-998 limits assumed): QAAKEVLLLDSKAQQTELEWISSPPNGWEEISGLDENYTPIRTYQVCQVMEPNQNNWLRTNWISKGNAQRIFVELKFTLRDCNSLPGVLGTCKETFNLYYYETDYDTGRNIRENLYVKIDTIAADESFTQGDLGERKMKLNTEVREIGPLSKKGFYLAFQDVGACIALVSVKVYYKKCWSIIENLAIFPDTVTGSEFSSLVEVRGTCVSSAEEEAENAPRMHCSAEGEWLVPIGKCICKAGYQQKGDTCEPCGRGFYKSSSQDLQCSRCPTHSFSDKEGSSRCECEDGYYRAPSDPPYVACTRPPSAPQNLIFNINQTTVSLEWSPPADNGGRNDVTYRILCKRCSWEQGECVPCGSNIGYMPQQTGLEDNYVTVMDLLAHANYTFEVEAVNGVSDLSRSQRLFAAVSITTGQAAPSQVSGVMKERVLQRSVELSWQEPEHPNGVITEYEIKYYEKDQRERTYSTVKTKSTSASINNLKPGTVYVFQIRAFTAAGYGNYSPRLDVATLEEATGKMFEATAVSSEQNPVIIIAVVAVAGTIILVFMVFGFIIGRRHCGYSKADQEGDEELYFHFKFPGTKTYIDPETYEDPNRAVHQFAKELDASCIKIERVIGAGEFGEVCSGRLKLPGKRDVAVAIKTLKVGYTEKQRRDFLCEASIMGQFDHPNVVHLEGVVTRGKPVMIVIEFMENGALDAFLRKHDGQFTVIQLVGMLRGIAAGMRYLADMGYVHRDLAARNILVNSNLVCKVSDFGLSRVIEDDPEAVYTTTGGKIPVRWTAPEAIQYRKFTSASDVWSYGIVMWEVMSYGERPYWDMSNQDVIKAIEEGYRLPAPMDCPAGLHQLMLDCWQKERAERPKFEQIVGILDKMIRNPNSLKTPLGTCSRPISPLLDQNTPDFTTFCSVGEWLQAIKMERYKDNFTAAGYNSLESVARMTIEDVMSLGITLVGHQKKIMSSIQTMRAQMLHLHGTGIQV
Chain of Mitogen-activated protein kinase 1 (P28482 whole entry): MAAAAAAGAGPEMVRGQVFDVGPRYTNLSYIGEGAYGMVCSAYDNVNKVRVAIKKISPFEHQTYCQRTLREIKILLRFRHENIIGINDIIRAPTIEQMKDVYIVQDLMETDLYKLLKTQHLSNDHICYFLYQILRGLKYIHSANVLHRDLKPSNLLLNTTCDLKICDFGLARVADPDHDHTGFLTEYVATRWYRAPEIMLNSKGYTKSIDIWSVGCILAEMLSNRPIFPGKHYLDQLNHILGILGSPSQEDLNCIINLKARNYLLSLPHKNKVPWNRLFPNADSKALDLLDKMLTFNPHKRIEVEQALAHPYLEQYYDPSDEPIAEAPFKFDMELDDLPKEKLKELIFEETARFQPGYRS
Chain of MAP kinase-interacting serine/threonine-protein kinase 1 (Homo sapiens) (Q9BUB5 whole entry, looked up): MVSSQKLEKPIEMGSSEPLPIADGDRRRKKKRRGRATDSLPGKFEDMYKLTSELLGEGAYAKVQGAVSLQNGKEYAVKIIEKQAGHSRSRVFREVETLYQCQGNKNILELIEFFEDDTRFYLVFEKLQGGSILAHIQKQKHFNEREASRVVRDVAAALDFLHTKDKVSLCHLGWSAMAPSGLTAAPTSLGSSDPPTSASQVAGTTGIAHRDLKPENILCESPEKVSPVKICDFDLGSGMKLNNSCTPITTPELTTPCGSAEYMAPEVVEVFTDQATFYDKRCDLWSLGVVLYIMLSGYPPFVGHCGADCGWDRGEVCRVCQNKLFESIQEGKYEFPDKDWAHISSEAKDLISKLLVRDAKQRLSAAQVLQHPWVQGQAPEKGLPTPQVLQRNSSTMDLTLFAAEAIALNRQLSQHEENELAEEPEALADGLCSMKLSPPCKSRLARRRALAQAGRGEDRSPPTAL
Chain of Serine/threonine-protein kinase PAK 1 (Homo sapiens) (Q13153 whole entry): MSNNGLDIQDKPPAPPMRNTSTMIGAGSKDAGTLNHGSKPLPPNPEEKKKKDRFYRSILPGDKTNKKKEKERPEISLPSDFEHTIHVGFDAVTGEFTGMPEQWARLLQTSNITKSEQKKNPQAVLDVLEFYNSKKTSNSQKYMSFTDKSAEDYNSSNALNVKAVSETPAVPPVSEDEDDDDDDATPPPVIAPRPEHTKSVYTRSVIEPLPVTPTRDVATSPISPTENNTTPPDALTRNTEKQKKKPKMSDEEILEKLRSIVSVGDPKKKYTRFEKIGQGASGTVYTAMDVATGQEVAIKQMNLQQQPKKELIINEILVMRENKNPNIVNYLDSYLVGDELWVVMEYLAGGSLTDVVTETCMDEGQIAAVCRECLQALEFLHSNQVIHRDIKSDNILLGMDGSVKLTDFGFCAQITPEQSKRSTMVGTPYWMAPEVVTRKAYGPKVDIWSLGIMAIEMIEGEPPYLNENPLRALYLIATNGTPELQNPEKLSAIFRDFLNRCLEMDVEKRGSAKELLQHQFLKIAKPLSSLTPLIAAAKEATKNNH
Chain of Ephrin type-A receptor 2 (Homo sapiens) (P29317 whole entry): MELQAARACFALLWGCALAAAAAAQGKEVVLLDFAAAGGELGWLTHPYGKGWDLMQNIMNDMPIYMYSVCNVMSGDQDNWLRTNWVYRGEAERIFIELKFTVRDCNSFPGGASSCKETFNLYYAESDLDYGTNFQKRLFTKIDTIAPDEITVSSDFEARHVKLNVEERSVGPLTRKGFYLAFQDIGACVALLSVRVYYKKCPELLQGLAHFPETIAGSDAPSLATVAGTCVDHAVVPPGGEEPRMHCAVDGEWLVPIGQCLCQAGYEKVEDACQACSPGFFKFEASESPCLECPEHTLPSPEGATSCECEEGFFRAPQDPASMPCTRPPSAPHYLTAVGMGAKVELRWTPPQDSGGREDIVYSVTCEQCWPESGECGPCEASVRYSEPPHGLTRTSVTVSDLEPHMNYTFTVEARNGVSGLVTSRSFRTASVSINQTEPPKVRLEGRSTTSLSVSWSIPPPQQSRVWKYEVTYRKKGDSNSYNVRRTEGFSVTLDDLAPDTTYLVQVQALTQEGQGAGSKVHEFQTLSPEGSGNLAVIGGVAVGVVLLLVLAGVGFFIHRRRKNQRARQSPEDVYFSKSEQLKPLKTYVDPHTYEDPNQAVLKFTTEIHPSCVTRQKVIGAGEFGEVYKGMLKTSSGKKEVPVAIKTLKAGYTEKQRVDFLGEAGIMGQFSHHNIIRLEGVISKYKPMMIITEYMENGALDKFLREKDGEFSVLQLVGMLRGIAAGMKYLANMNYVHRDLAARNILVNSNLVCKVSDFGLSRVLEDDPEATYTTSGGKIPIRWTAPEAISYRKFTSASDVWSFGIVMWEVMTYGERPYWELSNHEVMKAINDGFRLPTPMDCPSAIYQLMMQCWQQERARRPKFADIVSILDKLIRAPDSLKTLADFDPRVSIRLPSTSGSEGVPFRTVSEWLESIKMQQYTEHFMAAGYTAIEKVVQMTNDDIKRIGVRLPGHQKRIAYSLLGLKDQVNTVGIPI
Chain of Tyrosine-protein kinase Fgr (Homo sapiens) (P09769 2-529 limits assumed): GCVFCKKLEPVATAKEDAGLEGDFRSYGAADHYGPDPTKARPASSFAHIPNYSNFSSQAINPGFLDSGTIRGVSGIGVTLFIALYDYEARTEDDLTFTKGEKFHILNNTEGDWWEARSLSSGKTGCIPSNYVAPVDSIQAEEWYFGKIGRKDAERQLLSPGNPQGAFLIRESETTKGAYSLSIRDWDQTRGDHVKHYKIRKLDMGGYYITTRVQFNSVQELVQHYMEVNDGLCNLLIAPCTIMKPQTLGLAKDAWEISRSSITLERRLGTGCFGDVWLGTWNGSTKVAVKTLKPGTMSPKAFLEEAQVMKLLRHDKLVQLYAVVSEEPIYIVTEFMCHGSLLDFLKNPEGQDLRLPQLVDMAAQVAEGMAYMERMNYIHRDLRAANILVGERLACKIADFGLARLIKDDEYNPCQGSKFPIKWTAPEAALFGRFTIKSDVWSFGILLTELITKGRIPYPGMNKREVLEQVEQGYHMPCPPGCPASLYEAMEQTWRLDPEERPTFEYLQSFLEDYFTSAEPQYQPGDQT

O=C(NOC[C@H](O)CO)c1ccc(F)c(F)c1Nc1ccc(I)cc1F
% of control [1]: 89% | % of control [2]: 95%

CNC(=O)Nc1ccc(-c2nc(N3CC4CCC(C3)O4)c3cnn(C4CCC5(CC4)OCCO5)c3n2)cc1
% of inhibition [3]: 0%

CC[C@@H]1[C@H](F)C(=O)N[C@@H]1COc1nccc2cc(C(N)=O)c(OC)cc12 [ZIMLOVISERTIB]
% of inhibition [4]: 16%

CN(C)C/C=C/C(=O)Nc1ccc(C(=O)N2CCCC(Nc3ncc(Cl)c(-c4c[nH]c5ccccc45)n3)C2)cc1 (stereo unspecified)
% of control [5]: 73%

CC(C)(O)[C@H](F)CN1Cc2cc(NC(=O)c3cnn4cccnc34)c(N3CCOCC3)cc2C1=O
dTM [6]: -0.1 K

CN(C)CCOc1ccc(-c2nc(-c3ccncc3)c(-c3ccc4c(c3)CC/C4=N\O)[nH]2)cc1
% of control [7]: 81%

Nc1cnc(N2CCc3cc(S(=O)(=O)Nc4c(F)cc(Cl)cc4F)cc(N4CCCC4=O)c32)nc1 [TP-020n]
% of control [8]: 100%

CCC(=O)N1CCN(c2ccc(-n3c(=O)ccc4cnc5ccc(-c6cnc7ccccc7c6)cc5c43)cc2C(F)(F)F)CC1
% of control [9]: 59%

Cc1cc([C@@H](C)Nc2ccccc2C(=O)O)c2nc(N3CCOCC3)cc(=O)n2c1 [AZD-6482]
% of control [10]: 89%

N#Cc1cccc(-c2c[nH]c3ncnc(N4CCOCC4)c23)c1
% of control [11]: 67%
